From patent US20240383915A1, “OXAZEPINE COMPOUNDS AND USES THEREOF IN THE TREATMENT OF CANCER” (Genentech, Inc., priority 2021, published 2024)
Where two headings read alike, the source gives them in different places.

Assays:
[1] = biological target: KRas(G12V) (Homo sapiens (Human), UniProt P01116, G12V); experiment: KRas(G12V) GDP HTRF (BODIPY-GDP exchange TR-FRET); type: biochemical
[2] = biological target: KRas (Homo sapiens (Human), UniProt P01116); experiment: KRas GDP HTRF (BODIPY-GDP exchange TR-FRET); type: biochemical
Sequence of KRas (P01116-2 other isoform, or with tags, fused parts or gaps): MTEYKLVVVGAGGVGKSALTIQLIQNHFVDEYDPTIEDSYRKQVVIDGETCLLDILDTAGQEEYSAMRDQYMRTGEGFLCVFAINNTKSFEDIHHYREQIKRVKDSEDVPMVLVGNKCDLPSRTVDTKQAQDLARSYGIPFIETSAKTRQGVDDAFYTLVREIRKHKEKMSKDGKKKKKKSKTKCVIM
How it was run: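 Inhibition of SOS1-mediated exchange of BODIPY-GDP on KRAS G12D, started with 3 nM recombinant human SOS1 and 300 nM BODIPY-GDP and read after 60 min. TR-FRET excitation 337 nm, ratio 520/490 nm ×10,000. IC50 from 4-parameter Hill fit of normalized data.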

[3] = system: SW480 cells; experiment: SW480 proliferation assay; type: cell-based; details: read-out: SW480 Prolif IC50 (G12V)
[4] = system: PC-9 cells; experiment: PC9 proliferation assay; type: cell-based, human; details: read-out: PC9 Prolif IC50 (G12V)

Sequence of KRas(G12V) (P01116-2 other isoform, or with tags, fused parts or gaps G12V): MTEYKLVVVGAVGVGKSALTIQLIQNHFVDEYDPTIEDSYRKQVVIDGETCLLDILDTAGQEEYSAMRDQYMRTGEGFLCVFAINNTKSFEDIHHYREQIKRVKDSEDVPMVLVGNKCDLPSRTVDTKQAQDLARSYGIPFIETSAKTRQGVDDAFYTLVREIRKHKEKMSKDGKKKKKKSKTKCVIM

## Cc1cc(N)nc(-c2c(Cl)c3c4c(nc(OCC5(C#N)CC5)nc4c2F)N([C@H](C)c2cccnc2N)CCO3)c1C(F)(F)F (atropisomer, axis not shown) [Example 153, 1-((((R)-9-(6-amino-4-methyl-3-(trifluoromethyl)pyridin-2-yl)-4-((R)-1-(2-aminopyridin-3-yl)ethyl)-8-chloro-10-fluoro-5,6-dihydro-4H-[1,4]oxazepino[5,6,7-de]quinazolin-2-yl)oxy)methyl)cyclopropane-1-carbonitrile]
[1]
  IC50: 0.78 nM
[2]
  IC50: 3.3 nM
[3]; Homo sapiens, SW480, SW480
  IC50: 190 nM
[4]; Homo sapiens, PC-9, PC9
  IC50: 14000 nM

## Cc1cc(N)nc(-c2c(Cl)c3c4c(nc(OC[C@H]5C[C@@H]6C[N@@]5CCO6)nc4c2F)N([C@H](C)c2cccnc2N)CCO3)c1C(F)(F)F (atropisomer, axis not shown) [Example 92b, 6-((R)-2-(((1R,5R,7R)-4-oxa-1-azabicyclo[3.2.1]octan-7-yl)methoxy)-4-((R)-1-(2-aminopyridin-3-yl)ethyl)-8-chloro-10-fluoro-5,6-dihydro-4H-[1,4]oxazepino[5,6,7-de]quinazolin-9-yl)-4-methyl-5-(trifluoromethyl)pyridin-2-amine]
[1]
  IC50: 0.31 nM
[2]
  IC50: 1.89 nM
[3]; Homo sapiens, SW480, SW480
  IC50: 700 nM
[4]; Homo sapiens, PC-9, PC9
  IC50: 6000 nM

## C=C1CN2CCC[C@@]2(COc2nc3c4c(c(Cl)c(-c5cc(O)cc6ccccc56)cc4n2)OCCN3C)C1 [Example 59, (S)-4-(8-chloro-4-methyl-2-((2-methylenetetrahydro-1H-pyrrolizin-7a(5H)-yl)methoxy)-5,6-dihydro-4H-[1,4]oxazepino[5,6,7-de]quinazolin-9-yl)naphthalen-2-ol]
[1]
  IC50: 57 nM
[2]
  IC50: 270 nM
[3]; Homo sapiens, SW480, SW480
  IC50: 7100 nM
[4]; Homo sapiens, PC-9, PC9
  IC50: 5800 nM

## Cc1cc(N)c(F)c(-c2c(Cl)c3c4c(nc(OC[C@@]56CCCN5C[C@H](F)C6)nc4c2F)N([C@H](C)c2cccnc2N)CCO3)c1I (single isomer, unassigned) [Example 74a]
[1]
  IC50: 0.09 nM
[2]
  IC50: 0.21 nM
[3]; Homo sapiens, SW480, SW480
  IC50: 6 nM
[4]; Homo sapiens, PC-9, PC9
  IC50: 2900 nM

## Cc1c(F)c(N)nc(-c2c(Cl)c3c4c(nc(OC[C@@]56CCCN5C[C@H](F)C6)nc4c2F)N([C@H](C)c2cccnc2N)CCO3)c1C(F)(F)F (atropisomer, axis not shown; (aS)) [Example 75a, 6-((R)-4-((R)-1-(2-aminopyridin-3-yl)ethyl)-8-chloro-10-fluoro-2-(((2R,7aS)-2-fluorotetrahydro-1H-pyrrolizin-7a(5H)-yl)methoxy)-5,6-dihydro-4H-[1,4]oxazepino[5,6,7-de]quinazolin-9-yl)-3-fluoro-4-methyl-5-(trifluoromethyl)pyridin-2-amine]
[1]
  IC50: 0.05 nM
[2]
  IC50: 0.066 nM
[3]; Homo sapiens, SW480, SW480
  IC50: 1.1 nM
[4]; Homo sapiens, PC-9, PC9
  IC50: 890 nM

## COCC12COC(COc3nc4c5c(c(Cl)c(-c6nc(N)cc(C)c6C(F)(F)F)c(F)c5n3)OCCN4[C@H](C)c3cccnc3N)(C1)C2 [Example 149, 6-((R)-4-((R)-1-(2-aminopyridin-3-yl)ethyl)-8-chloro-10-fluoro-2-((4-(methoxymethyl)-2-oxabicyclo[2.1.1]hexan-1-yl)methoxy)-5,6-dihydro-4H-[1,4]oxazepino[5,6,7-de]quinazolin-9-yl)-4-methyl-5-(trifluoromethyl)pyridin-2-amine]
[1]
  IC50: 0.21 nM
[2]
  IC50: 0.78 nM
[3]; Homo sapiens, SW480, SW480
  IC50: 74 nM
[4]; Homo sapiens, PC-9, PC9
  IC50: 16000 nM

## Cc1cc(N)nc(-c2c(Cl)c3c4c(nc(OC[C@@]5(C)CC(F)(F)CN5C)nc4c2F)N([C@H](C)c2cccnc2N)CCO3)c1C(F)(F)F (atropisomer, axis not shown) [Example 122b, 6-((R)-4-((R)-1-(2-aminopyridin-3-yl)ethyl)-8-chloro-2-(((R)-4,4-difluoro-1,2-dimethylpyrrolidin-2-yl)methoxy)-10-fluoro-5,6-dihydro-4H-[1,4]oxazepino[5,6,7-de]quinazolin-9-yl)-4-methyl-5-(trifluoromethyl)pyridin-2-amine]
[1]
  IC50: 0.095 nM
[2]
  IC50: 0.202 nM
[3]; Homo sapiens, SW480, SW480
  IC50: 17 nM
[4]; Homo sapiens, PC-9, PC9
  IC50: 9400 nM

## Cc1cc(N)nc(-c2c(Cl)c3c4c(nc(OC[C@@H]5CC[C@H]6COCCCN65)nc4c2F)N([C@H](C)c2cccnc2N)CCO3)c1C(F)(F)F (atropisomer, axis not shown; (aS)) [Example 120a, 6-((R)-4-((R)-1-(2-aminopyridin-3-yl)ethyl)-8-chloro-10-fluoro-2-(((7S,9aS)-hexahydro-1H,3H-pyrrolo[2,1-c][1,4]oxazepin-7-yl)methoxy)-5,6-dihydro-4H-[1,4]oxazepino[5,6,7-de]quinazolin-9-yl)-4-methyl-5-(trifluoromethyl)pyridin-2-amine]
[1]
  IC50: 0.07 nM
[2]
  IC50: 0.2 nM
[3]; Homo sapiens, SW480, SW480
  IC50: 28 nM
[4]; Homo sapiens, PC-9, PC9
  IC50: 2500 nM

## Cc1cc(N)nc(-c2c(Cl)c3c4c(nc(OCC5COCCN5C)nc4c2F)N([C@H](C)c2cccnc2N)CCO3)c1C(F)(F)F (stereo partly drawn) [Example 140, 6-((9R)-4-((R)-1-(2-aminopyridin-3-yl)ethyl)-8-chloro-10-fluoro-2-((4-methylmorpholin-3-yl)methoxy)-5,6-dihydro-4H-[1,4]oxazepino[5,6,7-de]quinazolin-9-yl)-4-methyl-5-(trifluoromethyl)pyridin-2-amine]
[1]
  IC50: 0.17 nM
[2]
  IC50: 0.6 nM
[3]; Homo sapiens, SW480, SW480
  IC50: 51 nM
[4]; Homo sapiens, PC-9, PC9
  IC50: 3800 nM

## C[C@H](c1cccnc1N)N1CCOc2c(Cl)c(-c3nc(N)ccc3C(F)(F)F)c(F)c3nc(OC[C@@]45CCCN4C[C@H](F)C5)nc1c23 (atropisomer, axis not shown; (aS)) [Example 108a, 6-((R)-4-((R)-1-(2-aminopyridin-3-yl)ethyl)-8-chloro-10-fluoro-2-(((2R,7aS)-2-fluorotetrahydro-1H-pyrrolizin-7a(5H)-yl)methoxy)-5,6-dihydro-4H-[1,4]oxazepino[5,6,7-de]quinazolin-9-yl)-5-(trifluoromethyl)pyridin-2-amine]
[1]
  IC50: 0.06 nM
[2]
  IC50: 0.2 nM
[3]; Homo sapiens, SW480, SW480
  IC50: 2 nM
[4]; Homo sapiens, PC-9, PC9
  IC50: 1400 nM

## Cc1cc(N)nc(-c2c(Cl)c3c4c(nc(OC[C@@H]5CC(F)(F)CN5C)nc4c2F)N([C@H](C)c2cncnc2N)CCO3)c1C(F)(F)F (atropisomer, axis not shown) [Example 83a, 5-((R)-1-((R)-9-(6-amino-4-methyl-3-(trifluoromethyl)pyridin-2-yl)-8-chloro-2-(((S)-4,4-difluoro-1-methylpyrrolidin-2-yl)methoxy)-10-fluoro-5,6-dihydro-4H-[1,4]oxazepino[5,6,7-de]quinazolin-4-yl)ethyl)pyrimidin-4-amine]
[1]
  IC50: 0.19 nM
[2]
  IC50: 0.684 nM
[3]; Homo sapiens, SW480, SW480
  IC50: 23 nM
[4]; Homo sapiens, PC-9, PC9
  IC50: 5900 nM

## Cc1cc(N)nc(-c2c(Cl)c3c4c(nc(OCC5(C#N)CCOCC5)nc4c2F)N([C@H](C)c2cccnc2N)CCO3)c1C(F)(F)F (atropisomer, axis not shown) [Example 142, 4-((((R)-9-(6-amino-4-methyl-3-(trifluoromethyl)pyridin-2-yl)-4-((R)-1-(2-aminopyridin-3-yl)ethyl)-8-chloro-10-fluoro-5,6-dihydro-4H-[1,4]oxazepino[5,6,7-de]quinazolin-2-yl)oxy)methyl)tetrahydro-2H-pyran-4-carbonitrile]
[1]
  IC50: 0.31 nM
[2]
  IC50: 1.1 nM
[3]; Homo sapiens, SW480, SW480
  IC50: 120 nM
[4]; Homo sapiens, PC-9, PC9
  IC50: 7700 nM

## Cc1cc(N)nc(-c2c(Cl)c3c4c(nc(OCC56CCCN5CCC6)nc4c2F)N([C@H](C)c2cccnc2N)CCO3)c1C(F)(F)F (atropisomer, axis not shown) [Example 147, 6-((R)-4-((R)-1-(2-aminopyridin-3-yl)ethyl)-8-chloro-10-fluoro-2-((tetrahydro-1H-pyrrolizin-7a(5H)-yl)methoxy)-5,6-dihydro-4H-[1,4]oxazepino[5,6,7-de]quinazolin-9-yl)-4-methyl-5-(trifluoromethyl)pyridin-2-amine]
[1]
  IC50: 0.06 nM
[2]
  IC50: 0.18 nM
[3]; Homo sapiens, SW480, SW480
  IC50: 44 nM
[4]; Homo sapiens, PC-9, PC9
  IC50: 1300 nM

## Cc1cc(N)nc(-c2cc3nc(OC[C@@]45CCCN4C[C@H](F)C5)nc4c3c(c2Cl)OCCN4Cc2cccnc2N)c1C(F)(F)F [Example 60, 6-(4-((2-aminopyridin-3-yl)methyl)-8-chloro-2-(((2R,7aS)-2-fluorotetrahydro-1H-pyrrolizin-7a(5H)-yl)methoxy)-5,6-dihydro-4H-[1,4]oxazepino[5,6,7-de]quinazolin-9-yl)-4-methyl-5-(trifluoromethyl)pyridin-2-amine]
[1]
  IC50: 0.42 nM
[2]
  IC50: 0.48 nM
[3]; Homo sapiens, SW480, SW480
  IC50: 230 nM
[4]; Homo sapiens, PC-9, PC9
  IC50: 2700 nM

## Cc1cc(N)nc(-c2c(Cl)c3c4c(nc(OC[C@@]56CCCN5C[C@H](F)C6)nc4c2F)N(Cc2cccnc2N)CCO3)c1C(F)(F)F (single isomer, unassigned) [Example 42b]
[1]
  IC50: 55 nM
[2]
  IC50: 82 nM
[3]; SW480
  IC50: 3400 nM
[4]; PC9
  IC50: 7000 nM

## Cc1cc(N)nc(-c2c(Cl)c3c4c(nc(OC[C@H]5C[C@@H](O)C5)nc4c2F)N([C@H](C)c2cccnc2N)CCO3)c1C(F)(F)F (atropisomer, axis not shown) [Example 146, (1S,3s)-3-((((R)-9-(6-amino-4-methyl-3-(trifluoromethyl)pyridin-2-yl)-4-((R)-1-(2-aminopyridin-3-yl)ethyl)-8-chloro-10-fluoro-5,6-dihydro-4H-[1,4]oxazepino[5,6,7-de]quinazolin-2-yl)oxy)methyl)cyclobutan-1-ol]
[1]
  IC50: 0.61 nM
[2]
  IC50: 1.5 nM
[3]; Homo sapiens, SW480, SW480
  IC50: 510 nM
[4]; Homo sapiens, PC-9, PC9
  IC50: 19000 nM
